Entries after “also recorded” stand apart in the source; their conditions may differ.

One test concerns the target PKC-δ (Homo sapiens, UniProt Q05655). The experiment in a line: Activation of purified PKC isozymes, radiometric: PKC-δ. The test is classed as biochemical. As for the experimental part: To measure PKC activity, 10 μg of protein from either cytosol or membrane was incubated for 15 min at 37° C. in the presence of 10 μM histones, 4.89 mM CaCl2, 1.2 μg/μl phosphatidyl-L-serine, 0.18 μg/μl 1,2-dioctanoyl-sn-glycerol, 10 mM MgCl2, 20 mM HEPES (pH 7.4), 0.8 mM EDTA, 4 mM EGTA, 4% glycerol, 8 μg/ml aprotinin, 8 μg/ml leupeptin, 2 mM benzamidine, and 0.5 μCi of [γ-^32P]ATP. [^32P]Phosphoprotein formation was measured by adsorption onto phosphocellulose as described previously. See Nelson et al. (2009) J Biol Chem 284, 34514-34521. For measurements of activation by RA, PKC activity was measured in the absence of diacylglycerol (DAG) and phosphatidylserine, as described by Nelson et al. (2009) J Biol Chem 284, 34514-34521. PKC-δ and PKC-ε were measured in the absence of added EGTA and CaCl^2, as described by Kanno et al. (2006) J Lipid Res 47, 1146-1156. The enzyme was provided as a purified isozyme for in vitro experiments.
To measure PKC, 10 μl of cell homogenate or purified PKC isoform was incubated for 15 min at 37° C. in the presence of 10 μM histones, 4.89 mM CaCl2, 1.2 μg/μl phosphatidyl-L-serine, 0.18 μg/μl 1,2-dioctanoyl-sn-glycerol, 10 mM MgCl2, 20 mM HEPES (pH 7.4), 0.8 mM EDTA, 4 mM EGTA, 4% glycerol, 8 μg/ml aprotinin, 8 μg/ml leupeptin, and 2 mM benzamidine. [γ32P]ATP (0.5 μCi) was added and 32P-phosphoprotein formation was measured by adsorption onto phosphocellulose as described previously. See Nelson et al., J. Neurochemistry, 1995, 65: 2350-2357.
PKC activity of each compound was measured in the absence of diacylglycerol and phosphatidylserine and PKC-δ and PKC-ε were measured in the absence of added EGTA and CaCl2, as described by Kanno et al., J. Lipid Res., 2006, 47: 1146-1156. Low concentrations of Ca^2+ were needed because high Ca^2+ can interact with the PKC phosphatidylserine binding site and prevents activation. […] To determine their PKC isoform specificity, the compounds were pre-incubated with purified isoforms of PKC for five minutes and the PKC activity was measured radiometrically.

In test [1] the test system is phosphatidylserine (C2) binding site. The experiment in a line: 3H-DCPLA-ME binding to rat brain slices with competitors, film autoradiography. Here is the method: To determine the binding site of DCPLA-ME, ^3H-DCPLA-ME was incubated with rat brain slices in the absence and presence of known C1 and C2 competitors. More specifically, rat brain sections were fixed with formaldehyde, sliced, and incubated with (1) ^3H-DCPLA-ME alone; (2) ^3H-DCPLA-ME with DCPLA; (3) ^3H-DCPLA-ME with Phorbol ester; or (4) ^3H-DCPLA-ME and Bryostatin 1. After incubation, the slices were washed with a buffer made of 130 mM NaCl, 5 mM MgCl, 5 mM KCl, 1 mM EGTA, and 0.1% bovine serum albumin in 10 mM HEPES-NaOH, pH 7.4, dried, and analyzed with film-autoradiography.

The subject of another test is PKC-ε. The experiment in a line: PKC-ε translocation to membrane in SH-SY5Y cells (Western blot). The test is classed as cell-based, human. As for the experimental part: (§1) Cells were harvested in homogenizing buffer containing 10 mM Tris-Cl (pH 7.4), 1 mM PMSF (phenylmethylsulfonyl fluoride), 1 mM EGTA, 1 mM EDTA, 50 mM NaF, and 20 μM leupeptin and were lysed by sonication. The homogenate was centrifuged at 100,000×g for 15 min at 4° C. to obtain the cytosolic fraction (supernatant) and membrane (pellet). The pellet was resuspended in the homogenizing buffer by sonication. Protein concentration was measured using the Coomassie Plus (Bradford) Protein Assay kit (Pierce, USA). Following quantification, 20 μg of protein from each sample was subjected to SDS-PAGE analysis in 4-20% gradient Tris-Glycine gel (Invitrogen, USA). The separated protein was then transferred to nitrocellulose membrane. The membrane was blocked with BSA at room temperature for 15 min and was incubated with primary antibody over night at 4° C. After the incubation, it was washed three times with TBS-T (Tris Buffered saline-Tween 20) and further incubated with alkaline phosphatase conjugated secondary antibody (Jackson Immunoresearch Laboratories, USA) at 1:10,000 dilution for 45 min. The membrane was finally washed three times with TBS-T and developed using the 1-step NBT-BCIP substrate (Pierce, USA). Western Blot was imaged in the ImageQuant RT-ECL (GE Life Sciences, Piscataway, N.J.) and densitometric quantification was performed using the IMAL software (Blanchette Rockefeller Neurosciences Institute, Morgantown, W. Va.). For translocation assays, PKC activation was represented as the percentage of total protein in the membrane (membrane/cytosol+membrane).
Equal amounts of proteins were loaded in each lane (20 μg) for both the cytosol and membrane fractions. Activation of PKC was calculated as the percentage of total PKC in the membrane (membrane/cytosol+membrane).

A further test has as its system synaptophysin. As to the kind of experiment: Synaptophysin Western Blot in primary rat hippocampal neurons. The conditions noted are these: ASPD + DCPLA-ME. In kind it is cell-based. As for the experimental part:
as §1
A general note: Immunoblotting shows a protein as a band on a membrane.

Test [2] relates to primary human cortical neurons. As to the kind of experiment: Long-term culture of human primary cortical neurons (40 days). The test is classed as cell-based. As for the experimental part:
More specifically, human primary cortical neurons were grown in Neuronal Medium (ScienCell Cat No #1521) containing neuronal growth supplement (NGS) (Sciencell Cat No #1562).
Cells were plated on poly-l-lysine (0.001%) coated plates at a density of >10000 cells/cm2. Half of the media was replaced by new media every 3 days. DCPLA-ME or Bryostatin was dissolved in 100% ethanol and added at final concentration (100 nM for DCPLA-ME, 0.27 nM for Bryostatin). Fresh DCPLA-ME (100 nM) or Bryostatin (0.27 nM) was added every 3 days during media change. The experiments were continued for 40 days.
Human primary neurons (ScienCell Research Laboratories, USA) were thawed and plated on poly-L-lysine coated plates at a density of 10,000 cells per cm^2 and were maintained in neuronal medium (DMEM+high glucose+neuronal growth supplement, ScienCell Research Laboratories, USA) following the recommended method. Primary human neurons were then treated with either DCPLA-ME (100 nM) or bryostatin 1 (0.27 nM) for 40 days. Fresh drug was added every third day with 50% media change.

PKC-δ, sequence (Q05655 whole entry): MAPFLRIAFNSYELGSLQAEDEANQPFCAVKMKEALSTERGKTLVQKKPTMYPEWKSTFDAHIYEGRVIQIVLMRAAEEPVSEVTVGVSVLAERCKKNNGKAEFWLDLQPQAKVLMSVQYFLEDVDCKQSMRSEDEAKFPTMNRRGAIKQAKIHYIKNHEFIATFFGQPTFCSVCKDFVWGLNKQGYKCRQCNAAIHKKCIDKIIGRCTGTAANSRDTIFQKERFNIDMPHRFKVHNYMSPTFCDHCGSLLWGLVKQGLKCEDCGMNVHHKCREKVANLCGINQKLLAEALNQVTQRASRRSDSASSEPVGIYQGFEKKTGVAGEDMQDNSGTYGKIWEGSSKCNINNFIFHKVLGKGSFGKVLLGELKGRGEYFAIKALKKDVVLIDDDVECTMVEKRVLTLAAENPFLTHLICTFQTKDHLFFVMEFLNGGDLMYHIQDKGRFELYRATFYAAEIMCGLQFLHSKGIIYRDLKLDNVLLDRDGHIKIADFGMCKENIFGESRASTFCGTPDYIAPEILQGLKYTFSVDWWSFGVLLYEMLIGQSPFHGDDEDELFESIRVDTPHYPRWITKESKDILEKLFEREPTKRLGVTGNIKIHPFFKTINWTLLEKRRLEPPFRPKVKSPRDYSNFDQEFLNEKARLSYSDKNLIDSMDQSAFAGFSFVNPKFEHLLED

Regarding `CCCCCC1CC1CC1CC1CCCCCCCC(=O)OC` (centres unmarked) [DCPLA-ME, methyl 8-(2-((2-pentylcyclopropyl)methyl)cyclopropyl)octanoate], the “effect on PKC-δ (in words)” value at PKC-δ is “did not have a major effect; also recorded: less inhibitory effect on PKC-δ than DHA-CP6 and DCPLA”. Besides, in test [1], the “3H-DCPLA-ME binding, 30 nM competitor” value worked out at 64% and the “3H-DCPLA-ME binding, 1 μM competitor” value is reported as 37%. The “PKC-ε translocation (in words)” value in the test with PKC-ε (Aβ1-42 monomers 1 μM, DCPLA-ME added to ASPD-treated cells) is on record as “restored PKC-ε translocation to normal”. Also, the “synaptophysin expression by Western Blot (in words)” value in the test with synaptophysin is reported as “maintained the expression similar to control”. Besides, in test [2] (100 nM), the “fractal dimension (neuritic branching)” value came out at 1.40±0.03; the “number of colocalized puncta of synaptophysin and PSD-95” value is reported as 230 % of control; the “number of synapses (in words)” value was “significantly increased”. In addition, the neurite-positive cells/field in test [2] (100 nM, 40 days) was 360±45 cells/field. Moreover, in test [2] (compared to control or bryostatin 1-treated cells, 40 days), the “expression levels of PKCε, PSD-95 and synaptophysin (in words)” value is listed as “significantly higher”.
Consider `CCC/C=C/C=C/C(=O)O[C@H]1/C(=C/C(=O)OC)C[C@H]2C[C@H]([C@@H](C)O)OC(=O)C[C@H](O)C[C@@H]3C[C@H](OC(C)=O)C(C)(C)C(O)(C[C@@H]4C/C(=C/C(=O)OC)C[C@H](/C=C/C(C)(C)[C@]1(O)O2)O4)O3` [Bryostatin-1], for which, in test [1], the “3H-DCPLA-ME binding, 30 nM competitor” value is reported as 100% and the “3H-DCPLA-ME binding, 1 μM competitor” value turned out to be 77%. Moreover, in the test on PKC-ε (0.27 nM, 0-60 min), the “PKC-ε translocation over time (in words)” value is “remained activated at 60 min”.
For `CC1=C(/C=C/C(C)=C/C=C/C(C)=C/C(=O)O)C(C)(C)CCC1` [RA, All-trans retinoic acid], the “effect on PKC-δ (in words)” value on PKC-δ is “not activated”.

These data come from patent publication US10821079B2, “PKC activators and combinations thereof” (Cognitive Research Enterprises, Inc., priority 2011, dated 2020).
